Data: patent US9464044B2, “Compound having ability to inhibit 11Beta-HSD1 enzyme or pharmaceutically acceptable salt thereof, method for producing same, and pharmaceutical composition containing same as active ingredient” (AHN-GOOK PHARMACEUTICAL CO., LTD., priority 2012, dated 2016)

Target: 11β-HSD1 (Homo sapiens (Human), UniProt P28845)
Assay: 11β-HSD1 inhibiting activity, HTRF assay with human microsomal fractions
Format: biochemical
Settings: 160 nM cortisone, 200 μM NADPH, 2 h at 37° C.
Protocol: The inhibiting activity of 11β-HSD1 derived from microsomal fractions was measured using the HTRF assay (62CO2PEB, Cisbio). […] Europium (Eu^3+) cryptate and XL665-conjugated cortisol were then added to each well and incubated for an additional 2 h at room temperature. The Cortisol concentration was calculated u sing a calibration curve. The IC50 values were calculated from dose response curves using GraphPad Prism software.

Chain of 11β-HSD1 (P28845 whole entry): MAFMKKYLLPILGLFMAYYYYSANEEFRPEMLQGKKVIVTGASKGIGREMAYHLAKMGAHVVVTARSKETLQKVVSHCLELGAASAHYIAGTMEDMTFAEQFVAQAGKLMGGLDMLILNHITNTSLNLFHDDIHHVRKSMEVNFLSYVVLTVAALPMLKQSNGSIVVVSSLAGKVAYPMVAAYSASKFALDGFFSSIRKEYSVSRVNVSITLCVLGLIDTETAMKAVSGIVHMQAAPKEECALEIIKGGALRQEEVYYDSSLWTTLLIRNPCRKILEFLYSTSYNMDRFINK

Compound | IC50 [nM]
Cc1nc(C)c(S(=O)(=O)Nc2cccc(C(=O)NC3C4CC5CC3CC(C(N)=O)(C5)C4)c2)s1 (centres unmarked) [Example 107] | 60.3
NC(=O)C12CC3CC(C1)C(NC(=O)c1cccc(NS(=O)(=O)c4ccc(Br)cc4Cl)c1)C(C3)C2 (centres unmarked) [Example 116, E-4-[3-(2-chloro-4-bromo-benzenesulfonylamino)-benzamido]-adamantan-1-carboxylic acid amide] | 14.5
NC(=O)C12CC3CC(C1)C(NC(=O)C1(NC(=O)c4ccc(C(F)(F)F)cn4)CC1)C(C3)C2 (centres unmarked) [Example 64] | 111
NC(=O)C12CC3CC(C1)C(NC(=O)c1cccc(NS(=O)(=O)c4cccc(F)c4)c1)C(C3)C2 (centres unmarked) [Example 120, E-4-[3-(3-fluoro-benzenesulfonylamino)-benzamido]-adamantan-1-carboxylic acid amide] | 27.2
NC(=O)C12CC3CC(C1)C(NC(=O)C1(CNC(=O)N4CCc5ccccc5C4)CC1)C(C3)C2 (centres unmarked) [Example 140] | 97.8
Cc1n[nH]c(C)c1S(=O)(=O)Nc1cccc(C(=O)NC2C3CC4CC2CC(C(N)=O)(C4)C3)c1 (centres unmarked) [Example 108, E-4-[3-(3,5-dimethyl-1H-pyrazole-4-sulfonylamino)-benzamido]-adamantan-1-carboxylic acid amide] | 51.2
NC(=O)C12CC3CC(C1)C(NC(=O)c1cccc(NS(=O)(=O)c4c(Cl)cc(Cl)cc4Cl)c1)C(C3)C2 (centres unmarked) [Example 117, E-4-[3-(2,4,6-trichloro-benzenesulfonylamino)-benzamido]-adamantan-1-carboxylic acid amide] | 5
Cc1c(Cl)cccc1S(=O)(=O)NCC1(C(=O)NC2C3CC4CC(C3)CC2C4)CC1 (centres unmarked) [Example 1, N-(adamantan-2-yl)-1-[(3-chloro-2-methylbenzenesulfonylamino)methyl]cyclopropanecarboxamide] | 14.2
NC(=O)C12CC3CC(C1)C(NC(=O)c1cccc(NS(=O)(=O)c4ccc(F)cc4)c1)C(C3)C2 (centres unmarked) [Example 94, E-4-[3-(4-fluoro-benzenesulfonylamino)-benzamido]-adamantan-1-carboxylic acid amide] | 75.7
NC(=O)C12CC3CC(C1)C(NC(=O)C1(CNS(=O)(=O)c4cc(Cl)cc(Cl)c4)CC1)C(C3)C2 (centres unmarked) [Example 18] | 23.9
NC(=O)C12CC3CC(C1)C(NC(=O)C1(CNS(=O)(=O)c4ccc(F)cc4C(F)(F)F)CC1)C(C3)C2 (centres unmarked) [Example 20, E-4-[1-((2-(trifluoromethyl)-4-fluoro-benzenesulfonylamino)methyl)cyclopropanecarboxamido]-adamantan-1-carboxylic acid amide] | 102
NC(=O)C12CC3CC(C1)C(NC(=O)C1(CNS(=O)(=O)c4cc(F)cc(F)c4)CC1)C(C3)C2 (centres unmarked) [Example 9, E-4-[1-((3,5-difluoro-benzenesulfonylamino)methyl)cyclopropanecarboxamido]-adamantan-1-carboxylic acid amide] | 608
CN(C(C)(C)C(=O)NC1C2CC3CC1CC(C(N)=O)(C3)C2)S(=O)(=O)c1ccccc1F (centres unmarked) [Example 72, E-4-[2-(2-fluoro-N-methyl-benzenesulfonylamino)-2-methylpropanamido]adamantan-1-carboxylic acid amide] | 1.2
NC(=O)C12CC3CC(C1)C(NC(=O)c1cccc(NS(=O)(=O)c4ccccc4C(F)(F)F)c1F)C(C3)C2 (centres unmarked) [Example 125, E-4-[2-fluoro-3-(2-(trifluoromethyl)benzenesulfonylamino)benzamido]adamantan-1-carboxylic acid amide] | 11.6
NC(=O)C12CC3CC(C1)C(NC(=O)c1cccc(NS(=O)(=O)c4c(F)cccc4F)c1)C(C3)C2 (centres unmarked) [Example 123, E-4-[3-(2,6-difluoro-benzenesulfonylamino)-benzamido]-adamantan-1-carboxylic acid amide] | 12.8
NC(=O)C12CC3CC(C1)C(NC(=O)c1cccc(NS(=O)(=O)c4ccccc4Cl)c1)C(C3)C2 (centres unmarked) [Example 106] | 4.8
NC(=O)C12CC3CC(C1)C(NC(=O)C1(CNC(=O)c4ccc(F)c(F)c4)CC1)C(C3)C2 (centres unmarked) [Example 25] | 9.6
